The source made the active and inactive calls. The calls are words filed in the database; no cut-off is given here.
Assays:
Acetylcholinesterase [1] = target: T1, Acetylcholinesterase (Electrophorus electricus, UniProt O42275); experiment: Inhibition of electric eel AChE using acetylthiocholine iodide as substrate preincubated for 5 mins followed by substrate addition measured after 2 mins by spectroscopy based Ellman's method
Cholinesterase = Cholinesterase (Equus caballus, UniProt P81908); experiment: Inhibition of equine serum BuChE using butyrylthiocholine iodide as substrate preincubated for 5 mins followed by substrate addition measured after 2 mins by spectroscopy based Ellman's method
[2] = target: T2, Amyloid-beta precursor protein (Homo sapiens, UniProt P05067); experiment: Inhibition of HFIP-pretreated amyloid beta (1 to 42 residues) (unknown origin) self aggregation at 25 uM after 24 hrs by ThT-based fluorometric method
[3] = target: T2, Amyloid-beta precursor protein
Description: Inhibition of HFIP-pretreated amyloid beta (1 to 42 residues) (unknown origin) self aggregation after 24 hrs by ThT-based fluorometric method

Acetylcholinesterase [4] = target: T1, Acetylcholinesterase; experiment: Mixed-type inhibition of electric eel AChE using varying levels of acetylthiocholine iodide as substrate preincubated for 15 mins followed by substrate addition by Lineweaver-Burk plot analysis
[5] = target: T2, Amyloid-beta precursor protein; experiment: Inhibition of amyloid beta (1 to 42) (unknown origin) fibril formation at 25 uM after 24 hrs by uranyl acetate staining based transmission electron microscopic method
[6] = target: T2, Amyloid-beta precursor protein; experiment: Binding affinity to amyloid beta (1 to 42) (unknown origin) assessed as increase in alpha helix conformation at 10 uM after 12 hrs by CD spectroscopic method
[7] = target: T2, Amyloid-beta precursor protein; experiment: Binding affinity to amyloid beta (1 to 42) (unknown origin) assessed as decrease in beta sheet and random structure conformation at 10 uM after 12 hrs by CD spectroscopic method
[8] = Metal chelating activity of the compound assessed as formation of Zn2+-compound complex by measuring change in red shift in maximum absorption at 50 uM after 30 mins by UV-vis spectrophotometric method (reference value: […] nanometer)
[9] = Metal chelating activity of the compound assessed as formation of Fe2+-compound complex by measuring change in red shift in maximum absorption at 50 uM after 30 mins by UV-vis spectrophotometric method (reference value: […] nanometer)
[10] = Metal chelating activity assessed as inhibition of Cu2+-induced amyloid beta (1 to 42 residues) aggregation at 50 uM after 24 hrs by thioflavin-T fluorescence assay
[11] = Metal chelating activity assessed as inhibition of Cu2+-induced amyloid beta (1 to 42 residues) aggregation by measuring reduction in amyloid fibrils at 50 uM after 24 hrs by uranyl acetate staining based transmission electron microscopic analysis
[12] = Metal chelating activity of the compound assessed as mole fraction of compound causing 1:1 stoichiometry for formation of Cu2+-compound complex at 50 uM after 30 mins by UV-vis spectrophotometric method
[13] = (§1) Metal chelating activity of the compound assessed as formation of Cu2+-compound complex by measuring change in red shift in maximum absorption at 50 uM after 30 mins by UV-vis spectrophotometric method (reference value: […] nanometer)
[14] = as §1; remark: listed apart in the source

T2 sequence (P05067 whole entry, the tested form may be a part): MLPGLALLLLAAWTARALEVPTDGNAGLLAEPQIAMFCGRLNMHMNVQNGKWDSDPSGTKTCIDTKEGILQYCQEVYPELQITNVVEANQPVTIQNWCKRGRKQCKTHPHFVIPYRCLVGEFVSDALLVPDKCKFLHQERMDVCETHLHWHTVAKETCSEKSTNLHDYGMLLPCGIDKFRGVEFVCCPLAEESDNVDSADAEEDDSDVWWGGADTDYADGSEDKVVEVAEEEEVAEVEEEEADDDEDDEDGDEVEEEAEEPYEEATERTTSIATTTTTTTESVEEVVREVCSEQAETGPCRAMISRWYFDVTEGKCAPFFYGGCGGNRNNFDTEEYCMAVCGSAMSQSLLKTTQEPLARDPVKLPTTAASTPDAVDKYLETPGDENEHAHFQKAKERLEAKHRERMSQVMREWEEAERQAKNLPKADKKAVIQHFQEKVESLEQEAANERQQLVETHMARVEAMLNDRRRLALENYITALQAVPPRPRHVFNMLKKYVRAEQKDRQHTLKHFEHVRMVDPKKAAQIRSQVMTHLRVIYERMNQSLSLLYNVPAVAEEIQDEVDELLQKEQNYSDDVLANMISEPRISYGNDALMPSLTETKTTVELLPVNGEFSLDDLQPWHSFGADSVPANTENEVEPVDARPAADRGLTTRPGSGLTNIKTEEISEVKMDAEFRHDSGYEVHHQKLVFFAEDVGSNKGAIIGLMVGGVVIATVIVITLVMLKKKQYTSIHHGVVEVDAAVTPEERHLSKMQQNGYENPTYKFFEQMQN
Cholinesterase, sequence (P81908 whole entry, the tested form may be a part): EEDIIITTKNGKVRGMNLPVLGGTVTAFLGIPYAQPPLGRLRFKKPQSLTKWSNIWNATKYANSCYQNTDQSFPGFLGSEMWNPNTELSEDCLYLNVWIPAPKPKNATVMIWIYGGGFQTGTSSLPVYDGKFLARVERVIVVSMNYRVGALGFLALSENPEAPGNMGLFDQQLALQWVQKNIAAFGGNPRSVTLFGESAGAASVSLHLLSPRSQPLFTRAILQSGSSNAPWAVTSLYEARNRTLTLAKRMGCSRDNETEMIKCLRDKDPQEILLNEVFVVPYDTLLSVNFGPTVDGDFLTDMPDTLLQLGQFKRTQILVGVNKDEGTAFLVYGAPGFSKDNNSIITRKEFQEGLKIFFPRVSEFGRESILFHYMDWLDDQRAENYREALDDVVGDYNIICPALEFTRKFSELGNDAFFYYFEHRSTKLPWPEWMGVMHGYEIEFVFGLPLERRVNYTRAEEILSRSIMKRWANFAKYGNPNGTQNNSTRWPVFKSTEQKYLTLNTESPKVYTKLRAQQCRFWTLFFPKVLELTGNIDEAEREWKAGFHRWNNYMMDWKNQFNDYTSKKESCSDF
T1 sequence (O42275 whole entry): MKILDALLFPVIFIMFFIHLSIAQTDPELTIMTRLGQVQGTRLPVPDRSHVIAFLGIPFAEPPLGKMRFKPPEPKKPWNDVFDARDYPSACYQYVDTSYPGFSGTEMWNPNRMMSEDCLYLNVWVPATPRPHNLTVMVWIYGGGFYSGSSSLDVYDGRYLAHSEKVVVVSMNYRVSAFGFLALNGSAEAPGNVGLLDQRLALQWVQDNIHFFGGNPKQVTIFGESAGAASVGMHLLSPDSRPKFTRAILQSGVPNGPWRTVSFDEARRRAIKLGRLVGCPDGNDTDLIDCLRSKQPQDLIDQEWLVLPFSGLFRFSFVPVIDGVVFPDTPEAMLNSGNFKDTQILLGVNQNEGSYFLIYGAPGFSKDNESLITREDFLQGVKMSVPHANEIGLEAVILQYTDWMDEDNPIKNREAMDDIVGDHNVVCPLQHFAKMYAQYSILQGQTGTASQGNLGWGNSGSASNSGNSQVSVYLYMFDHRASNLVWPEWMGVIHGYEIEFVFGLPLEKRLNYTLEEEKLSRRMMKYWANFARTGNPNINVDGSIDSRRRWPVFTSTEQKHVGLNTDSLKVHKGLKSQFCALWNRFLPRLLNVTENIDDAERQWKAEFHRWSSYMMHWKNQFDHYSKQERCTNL

Compound	IC50 (Acetylcholinesterase [1])	IC50 (Cholinesterase)	inhibition [2]	IC50 [3]	other results
Cc1cc(N2CCN(c3nc(Nc4cccc(C(F)(F)F)c4)nc(Nc4ccc(F)c(Cl)c4)n3)CC2)n2ncnc2n1	388 nM	2610 nM	61.7%	16300 nM	
COc1ccc(Nc2nc(Cl)nc(N3CCN(c4cc(C)nc5ncnn45)CC3)n2)cc1	92 nM	1520 nM	68.5%	11500 nM	Ki (Acetylcholinesterase [4]): 102 nM; inhibition [5]: Active; Activity [6]: Active; Activity [7]: Active; Activity [8]: 236 nm; Activity [9]: 234 nm; inhibition [10]: 66.6%; inhibition [11]: Active; Activity (mole fraction) [12]: 0.96
FC(F)(F)c1cccc(Nc2nc(NC3CC3)nc(N3CCNCC3)n2)c1	1250 nM	3650 nM	58.8%	23500 nM	
COc1cc(/C=C/C(=O)CC(=O)/C=C/c2ccc(O)c(OC)c2)ccc1O					inhibition [5]: Active; inhibition [10]: 60.3%
Cc1cc(N2CCN(c3nc(Nc4cccc(C(F)(F)F)c4)nc(NC4CC4)n3)CC2)n2ncnc2n1	903 nM	1900 nM	44.3%		
Cc1ccc(Nc2nc(Nc3ccc(F)c(Cl)c3)nc(N3CCN(c4cc(C)nc5ncnn45)CC3)n2)cc1	859 nM	3780 nM	49.3%	25000 nM	
COc1ccc(Nc2nc(Cl)nc(Nc3cccc(C(F)(F)F)c3)n2)cc1	591 nM	2960 nM	67.2%	17600 nM	
Cc1cc(N2CCN(c3nc(Cl)nc(Nc4cccc(C(F)(F)F)c4)n3)CC2)n2ncnc2n1	65 nM	1880 nM	75.3%	10400 nM	Ki (Acetylcholinesterase [4]): 69 nM; inhibition [5]: Active; Activity [6]: Active; Activity [7]: Active; Activity [8]: Active; Activity [13]: 214 nm; Activity [9]: Active; inhibition [10]: 69.7%; inhibition [11]: Active; Activity [14]: 238 nm; Activity (mole fraction) [12]: > 0.9
Fc1ccc(Nc2nc(Cl)nc(Nc3cccc(C(F)(F)F)c3)n2)cc1Cl	432 nM	3980 nM	46.2%		
Cc1cc(N2CCN(c3nc(Cl)nc(Nc4ccc(F)cc4)n3)CC2)n2ncnc2n1	115 nM	930 nM	64.5%	15900 nM	
COc1ccc(Nc2nc(Cl)nc(Nc3ccc(F)c(Cl)c3)n2)cc1	705 nM	1640 nM	60.7%	23800 nM	
Fc1ccc(Nc2nc(Cl)nc(Nc3cccc(C(F)(F)F)c3)n2)c(F)c1	496 nM	4330 nM	65.2%	17900 nM	
Cc1cc(N2CCN(c3nc(Nc4ccc(F)cc4)nc(Nc4cccc(C(F)(F)F)c4)n3)CC2)n2ncnc2n1	724 nM	2490 nM	54.7%	18300 nM	
Cc1ccc(Nc2nc(Nc3cccc(C(F)(F)F)c3)nc(N3CCN(c4cc(C)nc5ncnn45)CC3)n2)cc1	558 nM	1750 nM	22.4%		
Fc1ccc(Nc2nc(Cl)nc(Nc3cccc(C(F)(F)F)c3)n2)cc1	526 nM	2450 nM	63%	18600 nM	
Cc1cc(N2CCN(c3nc(Cl)nc(Nc4ccccc4F)n3)CC2)n2ncnc2n1	286 nM	2230 nM	65.8%	13400 nM	
Cc1ccc(Nc2nc(Cl)nc(Nc3ccc(F)c(Cl)c3)n2)cc1	917 nM	2770 nM	62.5%	18000 nM	
Cc1ccc(Nc2nc(Cl)nc(Nc3cccc(C(F)(F)F)c3)n2)cc1	672 nM	2090 nM	64.8%	20700 nM	
